Reference: patent publication US20260191849A1, “PHARMACEUTICAL COMPOSITION FOR TREATMENT OF CANCER” (WIGEN BIOMEDICINE TECHNOLOGY (SHANGHAI) CO., LTD., priority 2022, published 2026)
Where two headings read alike, the source gives them in different places. Each block holds one compound with its values, some of them ahead of it.

Key:
HT29 cells [1] = assay: Combined use of compound 257, AMG650 or Compound A with PLK1 inhibitor on HT29 cell viability, 168 h (Biological Example 19); type: cell-based; conditions: for IC50: HT29 cells
Description: HT29 cells were seeded on a 384-well plate at 3000 cells/well.

[2] = tested on: HT29 subcutaneous xenograft tumors; assay: In vivo pharmacodynamic study, HT29 subcutaneous xenograft tumor model of mice (Biological Example 3); design: species or system BALB/c nude mice; conditions: 80 mg/kg intragastric once daily, day 28
Description: BALB/c nude mice were each inoculated subcutaneously with 5×10^6 HT29 cells on the left dorsal side. After the tumors grew to 100-150 mm^3, the mice were randomly divided into the following groups for intragastric administration once daily: group 1: vehicle control group; group 2: compound 661 (80 mg/kg); group 3: compound 669 (80 mg/kg); group 4: compound 677 (80 mg/kg); group 5: compound 714 (80 mg/kg); group 6: compound 727 (80 mg/kg); group 7: compound 740 (80 mg/kg); and group 8: AMG65 (80 mg/kg). The tumor volume was measured twice weekly and at the end of administration. […].

HCT116 cells = assay: Combined use of compound 257, AMG650 or Compound A with PLK1 inhibitor on HCT116 cell viability, 168 h (Biological Example 20); type: cell-based
Description: HCT116 cells were seeded on a 384-well plate at 3000 cells/well. After overnight adherence culture, DMSO or compound 257, AMG650, or Compound A serially diluted in a 1:5 ratio from 400 nM and a PLK1 inhibitor with a specified concentration were added. The cell viability was assessed 168 h after dosing by measuring the intracellular ATP content. The inhibition percentages of viable cells by the compounds were calculated by comparing with the DMSO group, and the IC50 values were also calculated.

[3] = tested on: HT29 subcutaneous xenograft tumors; assay: In vivo pharmacodynamic study of combination therapy, HT29 subcutaneous xenograft tumor model of mice (Biological Example 14); design: species or system BALB/c nude mice
From the text: BALB/c nude mice were each inoculated subcutaneously with 5×10^6 HT29 cells on the left dorsal side. After the tumors grew to 100-150 mm^3, the mice were randomly divided into the following groups for intragastric administration once daily for 14 consecutive days: group 1: vehicle control group; group 2: AMG650 (50 mpk, PO, QD); group 3: compound 714 (50 mpk, PO, QD); group 4: AMG650 (50 mpk, PO, QD)+Onvasertib (20 mpk, PO, QD); group 5: compound 714 (50 mpk, PO, QD)+Onvasertib (20 mpk, PO, QD); and group 6: Onvasertib (20 mpk, PO, QD). The administration to all the groups was stopped on day 15, and the tumor growth continued to be observed until day 21. The tumor volume was measured twice weekly and at the end of administration. […]

SK-OV-3 cells = assay: Combined use of compound 257 or AMG650 with PLK1 inhibitor on SK-OV-3 cell viability, 168 h (Biological Example 21); type: cell-based; conditions: Homo sapiens, SK-OV-3, 168 h, SK-OV-3 cells, 168 h, read-out: Volasertib IC50
Description: (§1) SK—OV-3 cells were seeded on a 384-well plate at 3000 cells/well. After overnight adherence culture, DMSO or compound 257 or AMG650 serially diluted in a 1:5 ratio from 400 nM and a PLK1 inhibitor with a specified concentration were added. The cell viability was assessed 168 h after dosing by measuring the intracellular ATP content. […] Furthermore, interactions between the drugs were also analyzed using the BLISS independence model, and the results are shown in FIG. 11 and FIG. 12.

HT29 cells [4] = assay: Combined use of compound 257 or AMG650 with PLK1 inhibitor (Volasertib) on HT29 cell viability, 168 h (Biological Example 22); type: cell-based; conditions: Homo sapiens, HT-29, 168 h, HT29 cells, 168 h, read-out: Volasertib IC50
Description: as §1, with “HT29” for “SK—OV-3”, “15” for “11”, “16.” for “12.”

[5] = PO QD 14 days, AMG650/714 50 mpk, Onvasertib 20 mpk, day 15
[6] = KIF18A inhibitor AMG650 0.0001 nM
[7] = KIF18A inhibitor AMG650 0.64 nM
[8] = KIF18A inhibitor Compound 257 0.0001 nM
[9] = KIF18A inhibitor Compound 257 0.64 nM
[10] = KIF18A inhibitor Compound 257 3.2 nM
[11] = KIF18A inhibitor Compound 257 16 nM
[12] = KIF18A inhibitor Compound 257 80 nM
[13] = KIF18A inhibitor Compound 257 400 nM

IC50 (HT29 cells [1]; KIF18A inhibitor AMG650 0.0001 nM, read-out: PLK1 inhibitor IC50): 50.1 nM
IC50 (HT29 cells [1]; KIF18A inhibitor AMG650 0.64 nM, read-out: PLK1 inhibitor IC50): 48.9 nM
IC50 (HT29 cells [1]; KIF18A inhibitor AMG650 3.2 nM, read-out: PLK1 inhibitor IC50): 49.9 nM
IC50 (HT29 cells [1]; KIF18A inhibitor AMG650 16 nM, read-out: PLK1 inhibitor IC50): 24.9 nM
IC50 (HT29 cells [1]; KIF18A inhibitor AMG650 80 nM, read-out: PLK1 inhibitor IC50): 7.9 nM
IC50 (HT29 cells [1]; KIF18A inhibitor AMG650 400 nM, read-out: PLK1 inhibitor IC50): 3.5 nM
IC50 (HT29 cells [1]; KIF18A inhibitor Compound 257 0.0001 nM, read-out: PLK1 inhibitor IC50): 52.1 nM
IC50 (HT29 cells [1]; KIF18A inhibitor Compound 257 0.64 nM, read-out: PLK1 inhibitor IC50): 37 nM
IC50 (HT29 cells [1]; KIF18A inhibitor Compound 257 3.2 nM, read-out: PLK1 inhibitor IC50): 15.5 nM
IC50 (HT29 cells [1]; KIF18A inhibitor Compound 257 16 nM, read-out: PLK1 inhibitor IC50): 3.8 nM
IC50 (HT29 cells [1]; KIF18A inhibitor Compound 257 80 nM, read-out: PLK1 inhibitor IC50): 1.6 nM
IC50 (HT29 cells [1]; KIF18A inhibitor Compound 257 400 nM, read-out: PLK1 inhibitor IC50): 2.2 nM
SMILES: COc1cc(C(=O)N[C@H]2CC[C@H](N3CCN(C)CC3)CC2)ccc1Nc1ncc2c(n1)N(C1CCCC1)CC1(CC1)C(=O)N2C [CYC140 (Plogosertib), Plogosertib]

SMILES: COc1ccc(NC(=O)c2ccc(NS(=O)(=O)CCOC(C)=O)cc2N2CCC3(CC2)CC3)nc1N1CCC(F)(F)CC1 [Compound 661]
TGI [2]: 61%

SMILES: COc1ccc(C(=O)Nc2ccc(NS(=O)(=O)CCOC(C)=O)cc2N2CCC3(CC2)CC3)nc1N1CCC(F)(F)CC1 [Compound 669]
TGI [2]: 30%

SMILES: COc1ccc(NC(=O)c2ccc(S(=O)(=O)NCCOC(C)=O)cc2N2CCC3(CC2)CC3)nc1N1CCC(F)(F)CC1 [Compound 677]
TGI [2]: 55%

IC50 (HCT116 cells; HCT116 cells, CYC140 (Plogosertib) 1.6 nM): > 400 nM
IC50 (HCT116 cells; HCT116 cells, CYC140 (Plogosertib) 8 nM): > 400 nM
IC50 (HCT116 cells; HCT116 cells, CYC140 (Plogosertib) 40 nM): > 400 nM
IC50 (HCT116 cells; HCT116 cells, TAK-960 0 nM): > 400 nM
IC50 (HCT116 cells; HCT116 cells, TAK-960 1.6 nM): > 400 nM
IC50 (HCT116 cells; HCT116 cells, TAK-960 8 nM): > 400 nM
IC50 (HCT116 cells; HCT116 cells, TAK-960 40 nM): > 400 nM
IC50 (HCT116 cells; Homo sapiens, HCT-116, HCT116 cells, CYC140 (Plogosertib) 0 nM): > 400 nM
IC50 (HT29 cells [1]; Homo sapiens, HT-29, 168 h, CYC140 (Plogosertib) 0.0001 nM, read-out: IC50): 26.1 nM
IC50 (HT29 cells [1]; Homo sapiens, HT-29, 168 h, CYC140 (Plogosertib) 1.6 nM, read-out: IC50): 19.6 nM
IC50 (HT29 cells [1]; Homo sapiens, HT-29, 168 h, CYC140 (Plogosertib) 8 nM, read-out: IC50): 15.5 nM
IC50 (HT29 cells [1]; Homo sapiens, HT-29, 168 h, CYC140 (Plogosertib) 40 nM, read-out: IC50): 2.2 nM
IC50 (HT29 cells [1]; Homo sapiens, HT-29, 168 h, TAK-960 0.0001 nM, read-out: IC50): 23.8 nM
IC50 (HT29 cells [1]; Homo sapiens, HT-29, 168 h, TAK-960 1.6 nM, read-out: IC50): 17.3 nM
IC50 (HT29 cells [1]; Homo sapiens, HT-29, 168 h, TAK-960 8 nM, read-out: IC50): 4.2 nM
IC50 (HT29 cells [1]; Homo sapiens, HT-29, 168 h, TAK-960 40 nM, read-out: IC50): 4.1 nM
SMILES: CCS(=O)(=O)Nc1ccc2c(c1)C1(CCC3(CC3)CC1)CN2C(=O)c1cccc(S(=O)(=O)NC(C)(C)C)c1 [Compound A]
synergistic effect on HCT116 cell viability, combined use with the PLK1 inhibitor (HCT116 cells; CYC140 or TAK-960, in words): no significant synergistic effect
anti-proliferative activity against HCT116 cells, monotherapy (HCT116 cells; in words): did not exhibit anti-proliferative activity
inhibitory effect on HT-29 cells, combined use with the PLK1 inhibitor compared with monotherapy (HT29 cells [1]; CYC140 or TAK-960, in words): stronger inhibitory effect

SMILES: CN1CCN(c2ccc(OC(F)(F)F)c(Nc3ncc4c(n3)-c3c(c(C(N)=O)nn3CCO)CC4)c2)CC1 [Onvasertib, Onvansertib]
Tumor volume on day 1 of administration ([3]; PO QD 14 days, AMG650/714 50 mpk, Onvasertib 20 mpk, day 1 (baseline)): 134 mm^3
TGI on day 15 [3, 5]: 80%
Tumor volume on day 15 of administration [3, 5]: 249 mm^3
therapeutic efficacy of monotherapy in HT29-bearing mice ([3]; monotherapy, in words): relatively weak therapeutic efficacy

IC50 (SK-OV-3 cells; [6]): 82.1 nM
IC50 (SK-OV-3 cells; [7]): 70.5 nM
IC50 (SK-OV-3 cells; KIF18A inhibitor AMG650 3.2 nM): 60.5 nM
IC50 (SK-OV-3 cells; KIF18A inhibitor AMG650 16 nM): 38.2 nM
IC50 (SK-OV-3 cells; KIF18A inhibitor AMG650 80 nM): 9.9 nM
IC50 (SK-OV-3 cells; KIF18A inhibitor AMG650 400 nM): 8.1 nM
IC50 (SK-OV-3 cells; [8]): 77.9 nM
IC50 (SK-OV-3 cells; [9]): 61.6 nM
IC50 (SK-OV-3 cells; [10]): 35.8 nM
IC50 (SK-OV-3 cells; [11]): 10.1 nM
IC50 (SK-OV-3 cells; [12]): 5.7 nM
IC50 (SK-OV-3 cells; [13]): 5.3 nM
IC50 (HT29 cells [4]; [6]): 22.8 nM
IC50 (HT29 cells [4]; [7]): 37.8 nM
IC50 (HT29 cells [4]; KIF18A inhibitor AMG650 3.2 nM): 34.9 nM
IC50 (HT29 cells [4]; KIF18A inhibitor AMG650 16 nM): 19.5 nM
IC50 (HT29 cells [4]; KIF18A inhibitor AMG650 80 nM): 18.3 nM
IC50 (HT29 cells [4]; KIF18A inhibitor AMG650 400 nM): 15.5 nM
IC50 (HT29 cells [4]; [8]): 17.2 nM
IC50 (HT29 cells [4]; [9]): 15.6 nM
IC50 (HT29 cells [4]; [10]): 10.2 nM
IC50 (HT29 cells [4]; [11]): 1.2 nM
IC50 (HT29 cells [4]; [12]): 1.4 nM
IC50 (HT29 cells [4]; [13]): 0.7 nM
SMILES: CC[C@@H]1C(=O)N(C)c2cnc(Nc3ccc(C(=O)N[C@H]4CC[C@H](N5CCN(CC6CC6)CC5)CC4)cc3OC)nc2N1C(C)C [Volasertib]
